Experimental findings from ChEMBL document CHEMBL1151847, “In vitro skin diffusion study of pure forskolin versus a forskolin-containing Plectranthus barbatus root extract” (J Nat Prod, 2009) are described below.

Data set [1] has as its system Zone of skin. Kind of data set: Permeability across human skin assessed as permeation lag time applied topically after 24 hrs by LC-MS analysis. It counts as ADME, tissue-based.
In data set [2] the test system is Zone of skin. Kind of data set: Permeability across guinea pig skin assessed as cumulative drug content applied topically after 24 hrs by LC-MS analysis. In kind it is ADME, tissue-based, Cavia porcellus. The note with it: topical_or_ocular.
For data set [3], the system named is Zone of skin. The data set can be described thus: Permeability across guinea pig skin assessed as drug content per gram of wet tissue applied topically after 24 hrs by LC-MS analysis. It counts as ADME, tissue-based, Cavia porcellus. To be noted: topical_or_ocular.
Data set [4] has as its system Zone of skin. The data set can be described thus: Permeability across human skin assessed as drug content per gram of wet tissue applied topically after 24 hrs by LC-MS analysis. In kind it is ADME, tissue-based.
Data set [5] relates to Zone of skin. Kind of data set: Permeability across guinea pig skin assessed as permeation lag time applied topically after 24 hrs by LC-MS analysis. It counts as ADME, tissue-based, Cavia porcellus. The note with it: topical_or_ocular.
In data set [6] the test system is Zone of skin. The data set can be described thus: Permeability across human skin assessed as cumulative drug content applied topically after 24 hrs by LC-MS analysis. In kind it is ADME, tissue-based.
Data set [7] in a line: Ratio of permeability flux across guinea pig skin to permeability flux across human skin. In kind it is ADME, tissue-based, Zone of skin.

Turning to `C=C[C@@]1(C)CC(=O)[C@]2(O)[C@@]3(C)[C@@H](O)CCC(C)(C)[C@@H]3[C@H](O)[C@H](OC(C)=O)[C@@]2(C)O1` [COLFORSIN], the Activity with Zone of skin [1] came to 1.5 h; in the data set with Zone of skin [5], 2.8 h. For the same molecule, the Drug uptake in the data set on Zone of skin [2] was 75.6 nmol; in the data set with Zone of skin [3], 5.8 µmol; in the data set on Zone of skin [4] it was 20 µmol; in the data set on Zone of skin [6], 3.8 nmol. In data set [7], the Ratio is given as 19.
